Laboratory results taken from patent publication US20240294550A1, “8-OXA-3-AZABICYCLO[3.2.1]OCTANE COMPOUNDS OR SALT THEREOF, AND PREPARATION METHOD AND USE THEREOF” (LITTDD MEDICINES LTD, priority 2021, published 2024).
Where a name gives a salt, the structure may show the parent alone.

Molecular target: ATR (Homo sapiens (Human), UniProt Q13535)
Experiment: ATR kinase inhibition assay (HTRF)
Format: biochemical
Conditions: p53 substrate, ATP 150 nM
Method: This experiment adopted Homogeneous time-resolved fluorescence technology (HTRF®) of Cisbio Company for assay.
Experiment method: buffers were prepared as follows:
Preparation of solutions of the test compounds: The example compounds shown in the table below were prepared into solutions using DMSO as solvent, the stock solution typically being 10 mM. The maximum starting concentration in this experiment was 3 μM, DMSO 3-fold serial dilutions for concentrations, the serially diluted solution was added to each well of the corresponding 384-well plate (geriner bio-one, Cat #784075) to give final concentrations of 3000, 1000, 333, 111, 37, 12.3, 4.12, 1.37, 0.457, 0.152 nM, respectively, and the corresponding amount of DMSO was added to the additional wells to be used as negative or positive control wells, respectively.
The enzyme and substrate were separately dissolved and diluted in two tubes with the buffer prepared above at the following concentrations:
5 μL of the ATR protein solution from tube A was added to the compound-containing wells and the negative control wells in the assay plates using an electric multichannel pipettor, and the same volume of the prepared buffer (medium only, no enzyme) was added to the positive control wells. The plates were centrifuged for one minute at 1000 rpm, and then placed in an incubator at 25° C. for 15 minutes. 5 μL of the substrate mix solution from tube B was added to the positive control well, negative control well and the compound-containing well of the assay plates in the same manner, centrifuged and incubated at 25° C. for 90 minutes.
During the reaction, after ATR phosphorylated the substrate p53, two antibodies were added. Among them, anti-phospho-p53-Eu, as an energy donor, can specifically bind to the phosphorylation site of p53, while anti-GST-d2, as an energy receptor, can specifically bind to the GST-tagged p53. Upon excitation by a laser with certain wavelength (the excitation wavelength in this experiment is 340 nm), the energy donor can emit emission light of 615 nm, and when the energy donor and the energy receptor are close enough in space (that is, two antibodies are connected to p53 at the same time), energy transfer can occur between the energy donor and the energy receptor, so that the energy receptor can emit emission light of 665 nm. The two emission lights were detected by a plate reader, and the ratio of the signals at 665 nm and 615 nm was calculated. The IC50 of the samples tested can be obtained by plotting and calculation.
10 μL per well of the detection solution was added to the positive control, negative control and compound wells of the assay plate using an electric multichannel pipette, centrifuged and incubated overnight at 4° C., and read with the plate reader Envision 2104.
Compound inhibition rate was calculated using interpolation. The mean values of the positive and negative controls were calculated respectively, and the following formula was used to calculate the inhibition rates of the compounds:
Inhibition rate Minimum response+(Compound concentration ^Curve slope)*(Maximum response−Minimum response)/(Compound concentration^Curve slope+Half inhibition concentration ^Curve slope)
The IC50 value of each compound to enzyme activity was obtained.

ATR, sequence (Q13535 whole entry): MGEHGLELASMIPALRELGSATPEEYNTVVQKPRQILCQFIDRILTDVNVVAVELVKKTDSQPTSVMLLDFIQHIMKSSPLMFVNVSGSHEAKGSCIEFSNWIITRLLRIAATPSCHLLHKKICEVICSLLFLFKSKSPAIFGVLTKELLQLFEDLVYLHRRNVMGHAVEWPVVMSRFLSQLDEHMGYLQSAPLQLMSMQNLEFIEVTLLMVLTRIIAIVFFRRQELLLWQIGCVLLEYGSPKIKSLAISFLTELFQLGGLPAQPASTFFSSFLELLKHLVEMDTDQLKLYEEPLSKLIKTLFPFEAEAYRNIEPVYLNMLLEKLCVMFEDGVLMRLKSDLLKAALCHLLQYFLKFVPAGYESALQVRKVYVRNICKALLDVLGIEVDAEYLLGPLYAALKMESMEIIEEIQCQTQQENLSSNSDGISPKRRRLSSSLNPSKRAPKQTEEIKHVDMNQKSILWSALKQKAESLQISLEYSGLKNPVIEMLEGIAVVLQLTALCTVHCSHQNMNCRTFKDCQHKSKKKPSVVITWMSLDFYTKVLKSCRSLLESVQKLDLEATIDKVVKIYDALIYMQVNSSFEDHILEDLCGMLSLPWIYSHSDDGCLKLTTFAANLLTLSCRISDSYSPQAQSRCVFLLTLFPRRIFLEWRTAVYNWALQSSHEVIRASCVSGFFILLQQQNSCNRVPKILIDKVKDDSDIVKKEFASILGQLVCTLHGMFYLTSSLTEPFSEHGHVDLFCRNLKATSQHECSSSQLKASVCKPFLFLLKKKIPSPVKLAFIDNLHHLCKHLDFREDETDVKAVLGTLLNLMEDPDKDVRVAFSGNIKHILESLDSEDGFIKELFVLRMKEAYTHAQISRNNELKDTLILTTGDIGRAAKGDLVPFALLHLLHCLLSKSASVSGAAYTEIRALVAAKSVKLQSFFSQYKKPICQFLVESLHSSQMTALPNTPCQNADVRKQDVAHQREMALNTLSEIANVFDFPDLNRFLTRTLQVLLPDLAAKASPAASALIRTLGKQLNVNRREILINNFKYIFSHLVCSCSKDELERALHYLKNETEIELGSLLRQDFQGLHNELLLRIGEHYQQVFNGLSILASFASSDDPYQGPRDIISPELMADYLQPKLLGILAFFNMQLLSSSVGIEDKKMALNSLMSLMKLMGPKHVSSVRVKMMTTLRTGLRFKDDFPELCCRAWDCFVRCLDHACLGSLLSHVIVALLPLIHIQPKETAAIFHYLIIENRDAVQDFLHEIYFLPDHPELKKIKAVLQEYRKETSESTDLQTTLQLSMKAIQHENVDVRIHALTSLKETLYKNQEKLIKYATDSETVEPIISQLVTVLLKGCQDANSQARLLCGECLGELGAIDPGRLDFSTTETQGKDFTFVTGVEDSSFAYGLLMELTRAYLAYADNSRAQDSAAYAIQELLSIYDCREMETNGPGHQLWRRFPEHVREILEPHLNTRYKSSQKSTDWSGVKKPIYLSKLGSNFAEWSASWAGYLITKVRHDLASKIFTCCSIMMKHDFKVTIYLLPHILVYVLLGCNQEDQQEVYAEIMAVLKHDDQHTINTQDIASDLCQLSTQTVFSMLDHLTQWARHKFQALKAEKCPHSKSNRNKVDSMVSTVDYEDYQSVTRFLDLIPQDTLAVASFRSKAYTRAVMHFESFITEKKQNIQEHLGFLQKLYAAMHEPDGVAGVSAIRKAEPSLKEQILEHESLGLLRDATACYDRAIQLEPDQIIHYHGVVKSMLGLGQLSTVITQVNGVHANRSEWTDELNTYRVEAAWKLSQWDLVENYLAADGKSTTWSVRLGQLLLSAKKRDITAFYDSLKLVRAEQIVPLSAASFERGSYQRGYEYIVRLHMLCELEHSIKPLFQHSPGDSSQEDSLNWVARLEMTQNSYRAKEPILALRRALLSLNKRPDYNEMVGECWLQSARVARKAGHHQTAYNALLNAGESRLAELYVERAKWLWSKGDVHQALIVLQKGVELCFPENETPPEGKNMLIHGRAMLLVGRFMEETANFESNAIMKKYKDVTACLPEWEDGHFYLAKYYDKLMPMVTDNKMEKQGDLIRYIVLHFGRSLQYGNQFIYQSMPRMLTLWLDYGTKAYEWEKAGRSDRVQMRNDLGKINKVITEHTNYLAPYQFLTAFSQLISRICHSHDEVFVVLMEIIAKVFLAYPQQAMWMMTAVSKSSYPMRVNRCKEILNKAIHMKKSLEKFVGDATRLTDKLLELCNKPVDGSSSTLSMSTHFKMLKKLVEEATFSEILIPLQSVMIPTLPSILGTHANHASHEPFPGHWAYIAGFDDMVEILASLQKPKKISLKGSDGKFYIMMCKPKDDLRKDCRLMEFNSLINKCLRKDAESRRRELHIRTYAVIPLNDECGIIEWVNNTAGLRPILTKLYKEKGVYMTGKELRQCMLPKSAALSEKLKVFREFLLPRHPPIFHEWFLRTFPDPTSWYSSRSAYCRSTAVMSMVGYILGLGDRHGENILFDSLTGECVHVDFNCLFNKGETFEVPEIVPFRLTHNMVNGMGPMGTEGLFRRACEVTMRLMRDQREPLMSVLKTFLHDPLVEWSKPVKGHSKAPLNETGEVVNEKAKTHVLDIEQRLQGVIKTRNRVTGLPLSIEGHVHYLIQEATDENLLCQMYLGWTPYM
ATR, sequence (Q8WXE1 whole entry partner): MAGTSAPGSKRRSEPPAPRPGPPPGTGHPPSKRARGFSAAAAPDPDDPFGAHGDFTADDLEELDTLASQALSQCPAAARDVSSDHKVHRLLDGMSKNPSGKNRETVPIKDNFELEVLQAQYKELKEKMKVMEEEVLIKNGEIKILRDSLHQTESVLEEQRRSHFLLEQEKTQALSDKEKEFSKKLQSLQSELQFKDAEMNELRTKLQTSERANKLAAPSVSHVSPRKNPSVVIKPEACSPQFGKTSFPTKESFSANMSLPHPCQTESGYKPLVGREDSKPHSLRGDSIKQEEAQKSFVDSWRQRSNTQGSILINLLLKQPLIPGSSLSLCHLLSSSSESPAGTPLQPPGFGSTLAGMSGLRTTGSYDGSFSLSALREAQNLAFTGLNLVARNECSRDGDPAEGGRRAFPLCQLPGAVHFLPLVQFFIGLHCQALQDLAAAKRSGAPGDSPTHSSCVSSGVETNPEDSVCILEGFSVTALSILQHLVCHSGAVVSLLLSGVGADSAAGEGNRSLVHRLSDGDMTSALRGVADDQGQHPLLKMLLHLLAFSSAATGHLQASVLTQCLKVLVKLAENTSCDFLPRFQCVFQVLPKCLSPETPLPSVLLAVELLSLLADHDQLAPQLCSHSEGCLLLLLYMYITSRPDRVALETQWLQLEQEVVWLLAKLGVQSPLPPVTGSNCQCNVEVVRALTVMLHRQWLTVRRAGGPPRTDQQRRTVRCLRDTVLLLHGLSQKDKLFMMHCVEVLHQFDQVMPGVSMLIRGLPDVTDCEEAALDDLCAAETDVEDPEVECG

| IC50 [nM] | SMILES |
| --- | --- |
| 85.5 | OC1(c2cc(N3C[C@H]4CC[C@@H](C3)O4)nc3c(-c4ccn[nH]4)cnn23)CCOCC1 [Example 23, 4-(5-((1R,5S)-8-oxa-3-azabicyclo[3.2.1]octan-3-yl)-3-(1H-pyrazol-5-yl)pyrazolo[1,5-a]pyrimidin-7-yl)tetrahydro-2H-pyran-4-ol] |
| 149 | Cn1nccc1-c1cc(N2CC3CCC(C2)O3)nn2c(-c3cc[nH]n3)cnc12 [Example 27, 3-(8-(1-methyl-1H-pyrazol-5-yl)-3-(1H-pyrazol-3-yl)imidazo[1,2-b]pyridazin-6-yl)-8-oxa-3-azabicyclo[3.2.1]octane] |
| 18 | Cn1nc(-c2cc[nH]n2)c2nc(N3CC4CCC(C3)O4)cc(N3CC4CCC(C3)O4)c21 [Example 13, 3-(7-(8-oxa-3-azabicyclo[3.2.1]octan-3-yl)-1-methyl-3-(1H-pyrazol-3-yl)-1H-pyrazolo[4,3-b]pyridin-5-yl)-8-oxa-3-azabicyclo[3.2.1]octane] |
| 32 | c1cc(-c2ncc3c(N4CCCCC4)cc(N4CC5CCC(C4)O5)nn23)n[nH]1 [Example 17, 3-(4-(piperidin-1-yl)-7-(1H-pyrazol-3-yl)imidazo[1,5-b]pyridazin-2-yl)-8-oxa-3-azabicyclo[3.2.1]octane] |
| 50.8 | CC1CN(c2cc(N3CC4CCC(C3)O4)nn3c(-c4cc[nH]n4)ncc23)CCO1 (stereo not drawn) [Example 18, 3-(4-(2-methylmorpholino)-7-(1H-pyrazol-3-yl)imidazo[1,5-b]pyridazin-2-yl)-8-oxa-3-azabicyclo[3.2.1]octane] |
| 145 | c1cc(-c2ncc3c(N4CCNCC4)cc(N4CC5CCC(C4)O5)nn23)n[nH]1 [Example 10, 3-(4-(piperazin-1-yl)-7-(1H-pyrazol-3-yl)imidazo[1,5-b]pyridazin-2-yl)-8-oxa-3-azabicyclo[3.2.1]octane formate] |
| 21.4 | c1cc(-c2ncc3c(N4CCOCC4)cc(N4CC5CCC(C4)O5)nn23)n[nH]1 [Example 7, 3-(4-morpholino-7-(1H-pyrazol-3-yl)imidazo[1,5-b]pyridazin-2-yl)-8-oxa-3-azabicyclo[3.2.1]octane] |
| 5.2 | CC1CC(F)(F)CCN1c1cc(N2CC3CCC(C2)O3)nn2c(-c3cc[nH]n3)ncc12 (stereo not drawn) [Example 30, 3-(4-(4,4-difluoro-2-methylpiperidin-1-yl)-7-(1H-pyrazol-3-yl)imidazo[1,5-b]pyridazin-2-yl)-8-oxa-3-azabicyclo[3.2.1]octane] |
| 16.9 | c1cc(-n2ncc3c(N4CC5CCC(C4)O5)cc(N4CC5CCC(C4)O5)nc32)n[nH]1 [Example 12, 3-(6-(-8-oxa-3-azabicyclo[3.2.1]octan-3-yl)-1-(1H-pyrazol-3-yl)-1H-pyrazolo[3,4-b]pyridin-4-yl)-8-oxa-3-azabicyclo[3.2.1]octane] |
